Key:
[1] = tested on: BRAF^V600E CRC cell lines; test: Cell viability assays, drug combinations, shift in vemurafenib sensitivity and combination index; type: cell-based; conditions: FIG. 5C
Protocol: To assess the growth/survival response of cell lines to single or combinatorial drug treatments, we used CellTiter-Glo cell viability assay (Promega; cat #G7571). Cell culture and luminescence readouts were performed in 96- and 384-well plates after 3-day treatments.
To calculate CI values in FIGS. 2A, 2B, 2E, FIGS. 5C, 5E, 5G and FIG. 6A, we applied the Bliss Independence model (54,55), which uses experimental profiles and avoids inaccuracies that commonly occur with dose-effect curve estimation approaches. CI is calculated as CI=−log 2 (Eab/(Ea*Eb)), where Ea and Eb correspond to the effects of drugs a and b alone at a given concentration, and Eab corresponds to the combined effects of drugs a and b at these same concentrations. In this model, CI>0 indicates synergistic effect, CI=0 indicates additivity effect, CI<0 indicates antagonistic effect.
To compare the effects of triple versus dual drug combinations in FIG. 3B, we calculated CI as follow: CI=−log 2 (Eabc/(Ea*Eb)), where Ea and Eb correspond to the effects of drugs a/VEM, b/GEF alone at a given concentration, and Eabc corresponds to the combined effects of drugs a and b at these same concentrations combined with a third drug (c/DAS) at the cell line-specific GI50 of DAS.

SFK = test: Western blot of SFK activation (Y419 phosphorylation); type: cell-based; conditions: BRAF^V600E CRC cell lines
Protocol: (§1) For samples to be analyzed with the HT-KAM platform, cells at ˜85% confluency were washed three times with cold PBS and lysed with freshly prepared 1× cell lysis buffer (1 ml per 2.5×10^6 cells) (lOX Cell Lysis Buffer, Cell Signaling; cat. #9803) complemented with 1× of Halt Protease & Phosphatase (100×, ThermoScientific; cat. #1861281). Cell lysates were collected and spun down at 14,000 rpm for 15 min at 4° C. and supernatants stored at −80° C. For samples to be analyzed by western blot, cell lysates were prepared with RIPA lysis buffer (150 mM NaCl, 0.1% SDS, 1% Nonidet P40, 1% sodium deoxycholate and 10 mM sodium phosphate, pH 7.2) supplemented with protease and phosphatase inhibitors. After clearing by centrifugation at 12,000 rpm for 10 minutes at 4° C., the lysates were analyzed as described in the respective experiments.
(§2) For western-blot, samples were denatured by boiling in 1× Laemmli buffer and run on an 8% SDS-PAGE gel. After transfer onto a PVDF membrane and blocking with 3% BSA, the membranes were incubated with primary antibodies overnight at 4° C., washed 3 times with TBST (Tris-buffered saline containing 0.05% Tween-20), incubated with secondary antibodies for 1 hour at room temperature and developed using chemoluminescence (cat #32209 from Pierce).
Antibodies anti-HSP90 was procured from Santa Cruz Biotechnologies (H-114, cat #7947). […]

[2] = tested on: beta-catenin (CTNNB1) Y654; test: Western blot of beta-catenin Y654 phosphorylation; type: cell-based; conditions: BRAF^V600E CRC cell lines, FIG. 4A, 11C, 12A
Protocol: as §1, §2

A375 = test: Cell viability assay (CellTiter-Glo), GI50, 3-day treatment; type: cell-based; conditions: Homo sapiens, A-375, 72 h; A375 (BRAF^V600E melanoma); 50% growth inhibition after 3 days of treatment compared to control; read-out: GI50 concentrations
Protocol: (§3) To assess the growth/survival response of cell lines to single or combinatorial drug treatments, we used CellTiter-Glo cell viability assay (Promega; cat #G7571). Cell culture and luminescence readouts were performed in 96- and 384-well plates after 3-day treatments. GI50 corresponds to the concentration of a given drug that causes 50% inhibition of cell growth (GI50). The effects of drug combinations on cell growth were assessed by calculating fold change in VEM-sensitivity and combination index (C.I.) that were experimentally measured from ≥9 individual datapoints around drugs' GI50, i.e. at GI50, 0.5×GI50, 2×GI50 concentrations of each drug per drug combination experiment. To address the particular effects of some drug treatments on some cell lines, the choice of experimental datapoints centered around drugs' GI50 effects was adjusted by including individual datapoints ranging from ≥GI25 to ≤GI75, leading to calculate fold change in VEM-sensitivity and combination index (C.I.) from 12 to 20 individual datapoints, as previously explained (7).

HT29 = test: as above; type: cell-based; conditions: Homo sapiens, HT-29, 72 h; HT29 (BRAF^V600E CRC); 50% growth inhibition after 3 days of treatment compared to control; read-out: GI50 concentrations
Protocol: as §3

KM20 = test: as above; type: cell-based; conditions: 72 h; KM20 (BRAF^V600E CRC); 50% growth inhibition after 3 days of treatment compared to control; read-out: GI50 concentrations
Protocol: as §3

LIM2405 = test: as above; type: cell-based; conditions: 72 h; LIM2405 (BRAF^V600E CRC); 50% growth inhibition after 3 days of treatment compared to control; read-out: GI50 concentrations
Protocol: as §3

LS411N = test: as above; type: cell-based; conditions: Homo sapiens, LS-411N, 72 h; LS411N (BRAF^V600E CRC); 50% growth inhibition after 3 days of treatment compared to control; read-out: GI50 concentrations
Protocol: as §3

OUMS23 = test: as above; type: cell-based; conditions: OUMS-23, 72 h; OUMS23 (CRC MAP3K8^amp); 50% growth inhibition after 3 days of treatment compared to control; read-out: GI50 concentrations
Protocol: as §3

RKO1 = test: as above; type: cell-based; conditions: 72 h; RKO1 (BRAF^V600E CRC); 50% growth inhibition after 3 days of treatment compared to control; read-out: GI50 concentrations
Protocol: as §3

SNUC5 = test: as above; type: cell-based; conditions: 72 h; SNUC5 (BRAF^V600E CRC); 50% growth inhibition after 3 days of treatment compared to control; read-out: GI50 concentrations
Protocol: as §3

Sk-Mel-28 = test: as above; type: cell-based; conditions: Homo sapiens, 72 h; Sk-Mel-28 (BRAF^V600E melanoma); 50% growth inhibition after 3 days of treatment compared to control; read-out: GI50 concentrations
Protocol: as §3

VACO432 = test: as above; type: cell-based; conditions: 72 h; VACO432 (BRAF^V600E CRC); 50% growth inhibition after 3 days of treatment compared to control; read-out: GI50 concentrations
Protocol: as §3

WiDr = test: as above; type: cell-based; conditions: Homo sapiens, 72 h; WiDr (BRAF^V600E CRC); 50% growth inhibition after 3 days of treatment compared to control; read-out: GI50 concentrations
Protocol: as §3

SRC = test: Automated IHC of active and total SRC in PDX tumors; type: in vivo, mice; conditions: both PDX models after 3 or 21 days of treatment; FIGS. 1E, 1F, 8B, 8C
Protocol: Primary antibody was diluted in Discovery Ab Diluent.
To detect phospho-Y419 SRC, phospho-Src (Y419) […] rabbit polyclonal supplied by R&D Systems (Cat #AF2685) was used at a titration of 1:50. […] Inhibitor was applied for 16 min.
To detect total SRC, TOTAL SRC (36D1) rabbit monoclonal manufactured by Cell Signaling Technology (Cat #2109) was used at a titration of 1:800. […] Inhibitor was applied for 16 minutes.

GI50 (A375) [µM] | GI50 (HT29) [µM] | GI50 (SNUC5) [µM] | Compound | increase in resistance to vemurafenib ([1]; BRAF^V600E CRC cells treated with PGE2, 3-day cell viability assays) [fold] | CI scores ([1]; PGE2 with vemurafenib in BRAF^V600E CRC cells, Bliss model) | SFK activation (phosphorylation of Y419) (SFK) | phosphorylation of beta-catenin (CTNNB1) at Y654 [2] | GI50 (KM20) [µM] | GI50 (LIM2405) [µM] | GI50 (LS411N) [µM] | GI50 (OUMS23) [µM] | GI50 (RKO1) [µM] | GI50 (Sk-Mel-28) [µM] | GI50 (VACO432) [µM] | GI50 (WiDr) [µM] | active and total SRC (IHC) (SRC)
 |  |  | CCCCC[C@H](O)/C=C/[C@H]1[C@H](O)CC(=O)[C@@H]1C/C=C\CCCC(=O)O [PGE2, Prostaglandin E2] | 2 to 4 | antagonism | increase in SFK activation | increase in phosphorylation |  |  |  |  |  |  |  |  | 
3.5 | 8 | 6.5 | Cc1nc(Nc2ncc(C(=O)Nc3c(C)cccc3Cl)s2)cc(N2CCN(CCO)CC2)n1 [dasatinib, N-(2-chloro-6-mnethylphenyl)-2-[[6-[4-(2-hydroxyethyl)piperazin-1-yl]-2-methylpyrimidin-4-yl]amino]-1,3-thiazole-5-carboxamide] |  |  |  |  | 0.8 | 1.5 | 3 | 1.9 | 10 | 6.5 | 2 | 0.9 | 
30 | 25 | 30 | COc1cc2ncnc(Nc3ccc(F)c(Cl)c3)c2cc1OCCCN1CCOCC1 [gefitinib, N-(3-chloro-4-fluorophenyl)-7-methoxy-6-(3-morpholin-4-ylpropoxy)quinazolin-4-amine] |  |  |  |  | 20 | 30 | 30 | 40 | 40 | 20 | 7.5 | 10 | 
 |  |  | CC(=O)Nc1cccc(-n2c(=O)n(C3CC3)c(=O)c3c(Nc4ccc(I)cc4F)n(C)c(=O)c(C)c32)c1 [trametinib, N-[3-[3-cyclopropyl-5-(2-fluoro-4-iodoanilino)-6,8-dimethyl-2,4,7-trioxopyrido[4,3-d]pyrimidin-1-yl]phenyl]acetamide] |  |  |  |  |  |  |  |  |  |  |  |  | statistically significant increases
 |  |  | CC(C)(C)c1nc(-c2cccc(NS(=O)(=O)c3c(F)cccc3F)c2F)c(-c2ccnc(N)n2)s1 [dabrafenib, N-[3-[5-(2-Amino-4-pyrimidinyl)-2-(2-methyli-2-propanyl)-1,3-tliazol-4-yl]-2-fluorophenyl]-2,6-difluorobenzenesulfonarmide] |  |  |  |  |  |  |  |  |  |  |  |  | statistically significant increases
